# Reference: patent publication US9611267B2, “Substituted tricyclic compounds as FGFR inhibitors” (Incyte Corporation, priority 2012, dated 2017)
# Legend:
# Assay type in all cases: biochemical
# FGFR2 = FGFR2 (Homo sapiens (Human), UniProt P21802); experiment: FGFR enzymatic assay (FRET peptide phosphorylation), FGFR2; conditions: FGFR2 enzyme 0.01 nM, ATP 100 μM
# Experimental: (§1) The inhibitor potency of the exemplified compounds was measured in an enzyme assay that measures peptide phosphorylation using FRET measurements to detect product formation. Inhibitors were serially diluted in DMSO and a volume of 0.5 μL was transferred to the wells of a 384-well plate. For FGFR3, a 10 μL volume of FGFR3 enzyme (Millipore) diluted in assay buffer (50 mM HEPES, 10 mM MgCl2, 1 mM EGTA, 0.01% Tween-20, 5 mM DTT, pH 7.5) was added to the plate and pre-incubated for 5-10 minutes. Appropriate controls (enzyme blank and enzyme with no inhibitor) were included on the plate. […] The plate was incubated at 25° C. for 1 hr. […] The plate was allowed to equilibrate for ˜1 hr before scanning the wells on a PheraStar plate reader (BMG Labtech).
# (§2) The enzymes were purchased from Millipore or Invitrogen.
# (§3) GraphPad prism3 was used to analyze the data. The IC50 values were derived by fitting the data to the equation for a sigmoidal dose-response with a variable slope. Y=Bottom+(Top−Bottom)/(1+10^((LogIC50−X)*HillSlope)) where X is the logarithm of concentration and Y is the response.
# FGFR1 = FGFR1 (Homo sapiens (Human), UniProt P11362); experiment: FGFR enzymatic assay (FRET peptide phosphorylation), FGFR1; conditions: FGFR1 enzyme 0.02 nM, ATP 210 μM
# Experimental: as §1, §2, §3
# FGFR3 = FGFR3 (Homo sapiens (Human), UniProt P22607); experiment: FGFR enzymatic assay (FRET peptide phosphorylation), FGFR3; conditions: FGFR3 enzyme (Millipore), ATP 140 μM
# Experimental: as §1, §3
# Sequence of FGFR2 (P21802 22-821): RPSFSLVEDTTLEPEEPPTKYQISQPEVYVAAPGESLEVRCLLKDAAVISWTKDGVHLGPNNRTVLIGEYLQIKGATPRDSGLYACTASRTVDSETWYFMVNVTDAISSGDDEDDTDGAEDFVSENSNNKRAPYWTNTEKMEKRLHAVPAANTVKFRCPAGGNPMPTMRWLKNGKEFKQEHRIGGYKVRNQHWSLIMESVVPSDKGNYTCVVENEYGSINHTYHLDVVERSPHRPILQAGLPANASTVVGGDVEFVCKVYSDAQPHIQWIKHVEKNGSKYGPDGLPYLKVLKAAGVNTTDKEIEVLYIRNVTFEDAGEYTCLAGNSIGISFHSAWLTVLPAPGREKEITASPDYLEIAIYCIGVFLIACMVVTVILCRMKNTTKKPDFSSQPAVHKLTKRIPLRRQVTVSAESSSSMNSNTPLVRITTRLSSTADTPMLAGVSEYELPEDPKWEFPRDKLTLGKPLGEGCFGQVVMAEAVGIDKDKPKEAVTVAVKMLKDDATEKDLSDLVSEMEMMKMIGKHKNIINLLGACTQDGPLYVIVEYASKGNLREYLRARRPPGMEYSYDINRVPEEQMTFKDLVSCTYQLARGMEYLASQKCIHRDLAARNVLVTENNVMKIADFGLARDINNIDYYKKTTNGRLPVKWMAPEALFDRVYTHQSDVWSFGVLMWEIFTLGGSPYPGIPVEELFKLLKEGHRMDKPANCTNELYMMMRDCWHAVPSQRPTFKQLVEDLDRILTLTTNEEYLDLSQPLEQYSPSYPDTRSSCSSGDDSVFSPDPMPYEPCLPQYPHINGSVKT
# Sequence of FGFR1 (P11362 22-822): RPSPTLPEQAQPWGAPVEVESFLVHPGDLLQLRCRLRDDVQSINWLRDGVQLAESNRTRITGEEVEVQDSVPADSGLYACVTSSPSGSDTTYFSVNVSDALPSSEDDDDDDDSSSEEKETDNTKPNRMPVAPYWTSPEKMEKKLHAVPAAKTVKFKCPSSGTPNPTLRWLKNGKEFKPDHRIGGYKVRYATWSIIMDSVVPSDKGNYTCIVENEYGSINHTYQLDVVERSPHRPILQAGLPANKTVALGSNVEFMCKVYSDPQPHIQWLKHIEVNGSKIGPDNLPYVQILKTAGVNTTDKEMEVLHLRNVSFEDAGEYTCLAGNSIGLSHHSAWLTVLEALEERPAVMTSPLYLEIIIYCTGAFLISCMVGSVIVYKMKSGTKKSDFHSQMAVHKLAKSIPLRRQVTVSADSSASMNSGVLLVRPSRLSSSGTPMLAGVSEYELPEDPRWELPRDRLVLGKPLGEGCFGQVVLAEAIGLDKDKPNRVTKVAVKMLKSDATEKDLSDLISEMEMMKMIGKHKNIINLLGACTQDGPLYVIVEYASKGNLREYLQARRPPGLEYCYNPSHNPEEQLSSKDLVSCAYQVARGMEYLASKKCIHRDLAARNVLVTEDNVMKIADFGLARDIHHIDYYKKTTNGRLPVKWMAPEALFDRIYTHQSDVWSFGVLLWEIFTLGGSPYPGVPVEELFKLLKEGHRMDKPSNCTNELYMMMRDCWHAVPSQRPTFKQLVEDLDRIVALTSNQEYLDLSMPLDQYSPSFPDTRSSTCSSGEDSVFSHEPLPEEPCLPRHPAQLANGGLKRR
# Sequence of FGFR3 (P22607 23-806): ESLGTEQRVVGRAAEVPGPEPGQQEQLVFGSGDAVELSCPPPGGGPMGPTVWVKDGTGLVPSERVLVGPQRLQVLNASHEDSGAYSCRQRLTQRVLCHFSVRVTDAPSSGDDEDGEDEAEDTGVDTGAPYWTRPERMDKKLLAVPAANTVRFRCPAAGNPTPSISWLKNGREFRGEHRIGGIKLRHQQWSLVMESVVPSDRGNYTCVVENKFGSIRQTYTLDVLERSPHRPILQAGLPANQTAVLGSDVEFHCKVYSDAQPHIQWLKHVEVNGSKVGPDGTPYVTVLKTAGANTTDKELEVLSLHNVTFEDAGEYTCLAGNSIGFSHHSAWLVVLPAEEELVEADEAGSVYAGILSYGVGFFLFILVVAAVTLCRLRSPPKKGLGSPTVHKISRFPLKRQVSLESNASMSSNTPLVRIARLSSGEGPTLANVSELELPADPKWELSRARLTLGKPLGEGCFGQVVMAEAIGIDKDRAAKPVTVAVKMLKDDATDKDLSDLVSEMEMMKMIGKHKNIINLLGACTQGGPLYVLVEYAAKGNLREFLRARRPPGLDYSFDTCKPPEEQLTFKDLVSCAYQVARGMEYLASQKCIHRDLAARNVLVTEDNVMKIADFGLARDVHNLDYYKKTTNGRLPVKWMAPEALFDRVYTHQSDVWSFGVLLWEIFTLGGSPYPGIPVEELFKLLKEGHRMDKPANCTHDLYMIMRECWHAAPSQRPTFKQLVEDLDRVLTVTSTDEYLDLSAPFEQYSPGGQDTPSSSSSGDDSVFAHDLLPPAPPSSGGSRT
Structure (SMILES),IC50 (FGFR2) [nM],IC50 (FGFR1) [nM],IC50 (FGFR3) [nM]
"COc1cc(OC)c(F)c(N2Cc3cnc4[nH]ccc4c3N(C3CC3)C2=O)c1F [Example 45, 1-Cyclopropyl-3-(2,6-difluoro-3,5-dimethoxyphenyl)-1,3,4,7-tetrahydro-2H-pyrrolo[3′,2′:5,6]pyrido[4,3-d]pyrimidin-2-one]",< 100,< 100,< 100
"COc1cc(OC)c(F)c(N2Cc3cnc4[nH]ccc4c3C3(CCC3)C2=O)c1F [Example 148, 7′-(2,6-difluoro-3,5-dimethoxyphenyl)-6′,7′-dihydrospiro[cyclobutane-1,9′-pyrrolo[2,3-c][2,7]naphthyridin]-8′(3′H)-one]",< 100,< 100,< 100
"COc1cc(OC)cc(N2Cc3cnc4[nH]c(C5CCN(C)CC5)cc4c3N(C)C2=O)c1 [Example 18, 3-(3,5-Dimethoxyphenyl)-1-methyl-8-(1-methylpiperidin-4-yl)-1,3,4,7-tetrahydro-2H-pyrrolo[3′,2′:5,6]pyrido[4,3-d]pyrimidin-2-one]",< 100,< 100,< 100
"COc1cc(OC)c(F)c(N2Cc3cnc4[nH]ncc4c3N(c3nnn(C)n3)C2=O)c1F [Example 95, 3-(2,6-difluoro-3,5-dimethoxyphenyl)-1-(2-methyl-2H-tetrazol-5-yl)-1,3,4,7-tetrahydro-2H-pyrazolo[4′,3′:5,6]pyrido[4,3-d]pyrimidin-2-one]",< 100,< 100,< 100
"COc1cc(OC)c(F)c(N2Cc3cnc4[nH]nc(CC#N)c4c3N(C)C2=O)c1F [Example 54, [3-(2,6-Difluoro-3,5-dimethoxyphenyl)-1-methyl-2-oxo-2,3,4,7-tetrahydro-1H-pyrazolo[4′,3′:5,6]pyrido[4,3-d]pyrimidin-9-yl]acetonitrile]",< 100,< 100,< 100

# Next, values leading:
IC50 (FGFR2) [nM],IC50 (FGFR1) [nM],IC50 (FGFR3) [nM],Structure (SMILES)
< 100,< 100,< 100,"COc1cc(OC)c(F)c(N2Cc3cnc4[nH]c(CCN5CCOCC5)cc4c3N(C)C2=O)c1F [Example 114, 3-(2,6-difluoro-3,5-dimethoxyphenyl)-1-methyl-8-(2-morpholin-4-ylethyl)-1,3,4,7-tetrahydro-2H-pyrrolo[3′,2′:5,6]pyrido[4,3-d]pyrimidin-2-one]"
< 100,< 100,< 100,"CCN1CCN(C(=O)c2cc3c4c(cnc3[nH]2)CN(c2c(F)c(OC)cc(OC)c2F)C(=O)N4C)CC1 [Example 119, 3-(2,6-difluoro-3,5-dimethoxyphenyl)-8-[(4-ethylpiperazin-1-yl)carbonyl]-1-methyl-1,3,4,7-tetrahydro-2H-pyrrolo[3′,2′:5,6]pyrido[4,3-d]pyrimidin-2-one]"
< 100,< 100,< 100,"COc1cc(OC)c(F)c(N2Cc3cnc4[nH]ccc4c3N(c3cccc(Cl)c3F)C2=O)c1F [Example 84, 1-(3-chloro-2-fluorophenyl)-3-(2,6-difluoro-3,5-dimethoxyphenyl)-1,3,4,7-tetrahydro-2H-pyrrolo[3′,2′:5,6]pyrido[4,3-d]pyrimidin-2-one]"
< 100,< 100,< 100,"COc1cc(OC)c(F)c(N2Cc3cnc4[nH]c(C(=O)N5CCOCC5)cc4c3N(C)C2=O)c1F [Example 41, 3-(2,6-Difluoro-3,5-dimethoxyphenyl)-1-methyl-8-(morpholin-4-ylcarbonyl)-1,3,4,7-tetrahydro-2H-pyrrolo[3′,2′:5,6]pyrido[4,3-d]pyrimidin-2-one]"
< 100,< 100,< 100,"CCN1CCN(CCc2cc3c4c(cnc3[nH]2)CN(c2c(F)c(OC)cc(OC)c2F)C(=O)N4c2cccc(F)c2)CC1 [Example 229, 3-(2,6-difluoro-3,5-dimethoxyphenyl)-1-(3-fluorophenyl)-8-[2-(4-ethylpiperazin-1-yl)ethyl]-1,3,4,7-tetrahydro-2H-pyrrolo[3′,2′:5,6]pyrido[4,3-d]pyrimidin-2-one]"
